≈ marks a conversion by molar mass, not a printed value.
Columns and labels:
[1] = system: DNA template prepared from control strains known to produce specific CTX-M β-lactamases or ESBLs other than CTX-M β-lactamases; assay: PCR specificity test of designed primers on control strains; settings: for amplification with the rest of the control strains: DNA template from all other control strains in Table 1; for size of single amplified product: DNA template from the control strains of the primer set's own group
Text: Once the primers are designed, their specificity can be tested using the following method. Depending on the target nucleic acid of clinical interest, a nucleic acid is isolated from a bacterial control strain known to express or contain the resistance gene. This control strain, as used herein, refers to a “positive control” nucleic acid (typically, DNA). Additionally, a “negative control” nucleic acid (typically, DNA) can be isolated from one or more bacterial strains known to express a resistance gene other than the target gene of interest. Using the polymerase chain reaction, the designed primers are employed in a detection method, as described above, and used in the positive and negative control samples and in at least one test sample suspected of containing the resistance gene of interest. The positive and negative controls provide an effective and qualitative (or grossly quantitative) means by which to establish the presence or the absence of the gene of interest of test clinical samples. It should be recognized that with a small percentage of primer pairs, possible cross-reactivity with other β-lactamase genes might be observed. However, the size and/or intensity of any cross-reactive amplified product will be considerably different and can therefore be readily evaluated and dismissed as a negative result.
Polymerase Chain Reaction (PCR) amplifications were carried out on a Thermal Cycler 9600 instrument (Applied Biosystems, Norwalk, Conn.) as indicated in Example 1, with the primers, the size of the expected amplification product, and annealing temperatures used for the PCR as listed in Table 1. Magnesium chloride concentrations were 1.5 mM for all PCR reactions.
The designed primers were tested for specificity in separate PCR reactions using DNA template prepared from control strains known to produce specific CTX-M β-lactamases or strains producing ESBLs other than CTX-M β-lactamases (Tables 1 and 2, FIG. 3). […] Group II primers amplified a single 351 bp fragment when DNA template was prepared from control strains Rio-4, 34, and CT1.
Group IV primers amplified a 474 bp product from DNA prepared from strains 785D, EC984167, CF1, Rio-6, BM4493, ILT-2, and ILT-3. […] An isolate producing CTX-M-25 was requested but not obtained. Therefore, we were unable to examine the ability of the Group III primer set to amplify blaCTX-M-25.

[2] = system: E. coli (n = 24), Positive for CTX-M-1 group; assay: ESBL screening of clinical strains; type: cell-based; settings: drug 1 μg/ml
Protocol: (§1) A total of 175 isolates representing E. coli (n=168), K. pneumoniae (n=7) were studied. Minimum inhibitory concentrations (MICs) to the following drugs were determined by Vitek (Vitek AMS; bioMérieux Vitek 5 Systems Inc., Hazelwood, Mo.); piperacillin (PIP), piperacillin/tazobactam (TZP), cefpodoxime (CPD), cefotaxime (CTX), ceftazidime (CAZ). The quality control strains used for this study were E. coli ATCC 25922, E. coli 35218, Pseudomonas aeruginosa ATCC 27853, Staphlylococcus aureus ATCC 29213, and K. pneumoniae ATCC 700603. Throughout this study, results were interpreted using National Committee for Clinical Laboratory Standards (NCCLS) criteria for broth dilution.
(§2) The presence of ESBLs was evaluated in both the control strains and the recent clinical isolates. Screening was performed with Vitek (Vitek AMS; bioMerieux Vitek Systems, Inc., Hazelwood, Mo.) using 1 μg/ml CPD, CAZ, and CTX. Screening and disk confirmation tests using CTX (30 μg) and CAZ (30 μg) disks in combination with 10 μg clavulanate (CLA) were performed and interpreted using NCCLS criteria for ESBL screening and disk confirmation tests. Disks for_ESBL confirmation tests were obtained from Oxoid Inc. (Nepean, Ontario, Canada). K. pneumoniae ATCC 700603 and E. coli ATCC 25922 were used as positive and negative controls, respectively.

[3] = system: E. coli (n = 51), PCR for blaCTXM genes Negative; assay: ESBL screening of clinical strains; type: cell-based; settings: drug 1 μg/ml
Protocol: as §1, §2

[4] = system: E. coli (n = 93), Positive for CTX-M-1V group; assay: ESBL screening of clinical strains; type: cell-based; settings: drug 1 μg/ml
Protocol: as §1, §2

[5] = system: K. pneumoniae (n = 2), Positive for CTX-M-1V group; assay: ESBL screening of clinical strains; type: cell-based; settings: drug 1 μg/ml
Protocol: as §1, §2

[6] = system: K. pneumoniae (n = 5), PCR for blaCTXM genes Negative; assay: ESBL screening of clinical strains; type: cell-based; settings: drug 1 μg/ml
Protocol: as §1, §2

[7] = system: Total (n = 175) clinical strains producing extended-spectrum β-lactamases; assay: ESBL screening of clinical strains; type: cell-based, E. coli, K. pneumoniae; settings: drug 1 μg/ml
Protocol: as §1, §2

[8] = system: Twenty two isolates representing E. coli (Ec), Citrobacter freundii (Cf) and C. koseri (Ck); assay: MICs of the 22 isolates of Example 1; type: cell-based; settings: read-out: MICs; all 22 isolates (E. coli, C. freundii, C. koseri)
Protocol: Twenty two isolates representing E. coli (Ec), Citrobacter freundii (Cf) and C. koseri (Ck) were studied. All of these strains had MICs of greater than (>) 32 micrograms per milliliter […] of cefotaxime, >16 mg/ml of cefepime, and ranged between 1 to 8 mg/ml for ceftazidime. Dendrogram analysis of CTX-M genes deposited in GenBank was performed, and based on these analyses, known CTX-M-genes were divided into four families. Based on these families, four sets of family-specific primers were designed. Specificity of the primers was tested on all 22 of the isolates.

ESBL-producing strains = settings: drug used as an initial screen; cited from earlier work

| Compound | amplification with the rest of the control strains [1] | size of single amplified product [1] [bp] | Screening, No positive [2] | Screening, No positive (%) [2] | Screening, No positive [3] | Screening, No positive (%) [3] | Screening, No positive [4] | Screening, No positive (%) [4] | Screening, No positive [5] | Screening, No positive (%) [5] | Screening, No positive [6] | Screening, No positive (%) [6] | Screening, No positive [7] | Screening, No positive (%) [7] | MIC [8] [µg/mL] | further results |
| --- | --- | --- | --- | --- | --- | --- | --- | --- | --- | --- | --- | --- | --- | --- | --- | --- |
| CTX-M-VI group: primer pair of SEQ ID NO:5 and SEQ ID NO:6, Group 4 CTX-M β-lactamases, 474 base pair amplicon (DNA 1 GCTGGAGAAAAGCAGCGGAG; DNA 2 GTAAGCTGACGCAACGTCTG; PCR primers, chemistry not given here, further chemistry not given here) | no amplification of DNA | 474 | – | – | – | – | – | – | – | – | – | – | – | – | – | – |
| CC(C)(O/N=C(\C(=O)N[C@@H]1C(=O)N2C(C(=O)[O-])=C(C[n+]3ccccc3)CS[C@H]12)c1csc(N)n1)C(=O)O [CAZ, ceftazidime] | – | – | 24 | (100%) | 51 | (100%) | 71 | (76%) | 0 | (0%) | 5 | (100%) | 151 | (86%) | 1 to 8 (≈ 1.83 to 14.6 µM) | ESBL-producing strains not detected (ESBL-producing strains): about 14% |
| CTX-M-II group: primer pair of SEQ ID NO:3 and SEQ ID NO:4, Group 2 CTX-M β-lactamases, 351 base pair amplicon (DNA 1 GCGACCTGGTTAACTACAATCC; DNA 2 CGGTAGTATTGCCCTTAAGCC; PCR primers, chemistry not given here, further chemistry not given here) | no amplification product | 351 | – | – | – | – | – | – | – | – | – | – | – | – | – | – |
| CTX-M-III group: primer pair of SEQ ID NO:7 and SEQ ID NO:8, Group 3 or Group 5 CTX-M β-lactamases, 307 base pair amplicon (DNA 1 CGCTTTGCCATGTGCAGCACC; DNA 2 GCTCAGTACGATCGAGCC; PCR primers, chemistry not given here, further chemistry not given here) | – | – | – | – | – | – | – | – | – | – | – | – | – | – | – | control strains whose DNA was amplified ([1]; all control strains of Table 1): amplification of DNA prepared from only one strain, Rio-3 |
| COCC1=C(C(=O)O)N2C(=O)[C@@H](NC(=O)/C(=N\OC)c3csc(N)n3)[C@H]2SC1 [CPD, cefpodoxime] | – | – | 24 | (100%) | 51 | (100%) | 93 | (100%) | 2 | (100%) | 5 | (100%) | 175 | (100%) | – | – |
| CO/N=C(\C(=O)N[C@@H]1C(=O)N2C(C(=O)O)=C(COC(C)=O)CS[C@H]12)c1csc(N)n1 [CTX, cefotaxime] | – | – | 24 | (100%) | 48 | (94%) | 93 | (100%) | 2 | (100%) | 4 | (80%) | 171 | (98%) | > 32 | – |
| CO/N=C(\C(=O)N[C@@H]1C(=O)N2C(C(=O)[O-])=C(C[N+]3(C)CCCC3)CS[C@H]12)c1csc(N)n1 [cefepime] | – | – | – | – | – | – | – | – | – | – | – | – | – | – | > 16 | – |
| CTX-M-I group: primer pair of SEQ ID NO:1 and SEQ ID NO:2, Group 1 CTX-M β-lactamases, 499 base pair amplicon (DNA 1 GACGATGTCACTGGCTGAGC; DNA 2 AGCCGCCGACGCTAATACA; PCR primers, chemistry not given here, further chemistry not given here) | No amplified product | 499 | – | – | – | – | – | – | – | – | – | – | – | – | – | – |
